Data from the NIST ThermoML archive (doi:10.1021/je101317k).

What was measured:
[1] = refractive index (other wavelength) (dimensionless); details: 101 kPa, Liquid, Wavelength=632.8 nm, Standard Abbe refractometry
[2] = refractive index (other wavelength) (dimensionless); xn = mol fraction of the nth substance listed; details: 101 kPa, Liquid, Wavelength=632.8 nm, Standard Abbe refractometry

COC(=O)OC [dimethyl carbonate]
[1]
Details | refractive index
277.78 K | 1.3747
278.13 K | 1.3745
279.18 K | 1.374
280.25 K | 1.3735
280.74 K | 1.3733
281.69 K | 1.3728
293.19 K | 1.3676
294.27 K | 1.3671
295.3 K | 1.3666
296.34 K | 1.3661
297.38 K | 1.3656
298.4 K | 1.3651
299.48 K | 1.3647

COC(=O)OC [dimethyl carbonate] + CCCCCCCCC
Details | refractive index
[2], 281.69 K, x1 = 1 | 1.3728

CCCCCCCCCCCC [dodecane]
[1]
Details | refractive index
293.28 K | 1.4203
294.33 K | 1.4198
295.37 K | 1.4194
296.54 K | 1.4189
297.58 K | 1.4184
298.65 K | 1.418
299.72 K | 1.4175

CCCCCCCCCCCC [dodecane] + COC(=O)OC
[2], 299.73 K
Details | refractive index
x2 = 0.103 | 1.414
x2 = 0.204 | 1.4106
x2 = 0.299 | 1.4071
x2 = 0.409 | 1.4028
x2 = 0.512 | 1.3983
x2 = 0.611 | 1.3934
x2 = 0.713 | 1.3875
x2 = 0.791 | 1.3823
x2 = 0.899 | 1.3739

CCCCCCCCC [nonane]
[1]
Details | refractive index
277.15 K | 1.4116
278.19 K | 1.4111
279.2 K | 1.4106
279.71 K | 1.4104
280.28 K | 1.4101
281.69 K | 1.4095

CCCCCCCCC [nonane] + COC(=O)OC
[2], 281.69 K
Details | refractive index
x2 = 0 | 1.4095
x2 = 0.105 | 1.4061
x2 = 0.201 | 1.4031
x2 = 0.305 | 1.3999
x2 = 0.405 | 1.3968
x2 = 0.505 | 1.3936
x2 = 0.596 | 1.3905
x2 = 0.706 | 1.3863
x2 = 0.8 | 1.3822
x2 = 0.888 | 1.3781
